Experimental data published in US8759333B2, “Di-azetidinyl diamide as monoacylglycerol lipase inhibitors” (Janssen Pharmaceutica, NV, priority 2010, dated 2014).
Residue numbers refer to the chain shown, from its start.

How the values were obtained:
[1] = molecular target: T1, wild type MGL (wt-MGLL 6H-11-313) (Homo sapiens, UniProt Q99685); test: MGL Enzyme Activity Assay, purified wild type MGL, 4MU-B substrate; type: biochemical; details: wild type MGL 5 nM, 4MU-B 10 μM, 37° C.; read-out: MGL wild type inh IC50
T1 construct: purified wild type MGL (wt-MGLL 6H-11-313); 6H (hexahistidine) (N)
T1 sequence (Q99685 1-303): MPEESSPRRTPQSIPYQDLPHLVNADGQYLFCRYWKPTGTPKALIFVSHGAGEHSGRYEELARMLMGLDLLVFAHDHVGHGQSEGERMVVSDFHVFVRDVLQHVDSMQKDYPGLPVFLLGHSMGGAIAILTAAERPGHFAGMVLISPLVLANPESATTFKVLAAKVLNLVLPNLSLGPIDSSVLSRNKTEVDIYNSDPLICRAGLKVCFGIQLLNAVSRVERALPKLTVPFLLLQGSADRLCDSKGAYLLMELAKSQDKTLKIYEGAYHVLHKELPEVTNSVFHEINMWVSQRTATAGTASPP
Description: All rate-based assays were performed in black 384-well polypropylene PCR microplates (Abgene) in a total volume of 30 μL. […] Final compound concentrations ranged from 17 to 0.0003 μM.
(§1) The IC50 values for the following compounds were determined using Microsoft Office Excel from a fit of the equation to the concentration-response plot of the fractional activity as a function of inhibitor concentration.

[2] = molecular target: T2, MGL (Rattus norvegicus, UniProt Q8R431); test: 2-AG Accumulation Assay in rat brain homogenate; type: biochemical; details: percent of vehicle; for activity at 1 µM: compound @1 µM, read-out: Rat Brain 2AG % VehCntrl (%) @1 µM; for activity at 10 µM: compound @10 µM, read-out: Rat Brain 2AG % VehCntrl (%) @10 µM
T2 construct: one g rat brain was homogenized using a Polytron homogenizer; from tissue; host or cells: rat brain homogenate
T2 sequence (Q8R431 1-303): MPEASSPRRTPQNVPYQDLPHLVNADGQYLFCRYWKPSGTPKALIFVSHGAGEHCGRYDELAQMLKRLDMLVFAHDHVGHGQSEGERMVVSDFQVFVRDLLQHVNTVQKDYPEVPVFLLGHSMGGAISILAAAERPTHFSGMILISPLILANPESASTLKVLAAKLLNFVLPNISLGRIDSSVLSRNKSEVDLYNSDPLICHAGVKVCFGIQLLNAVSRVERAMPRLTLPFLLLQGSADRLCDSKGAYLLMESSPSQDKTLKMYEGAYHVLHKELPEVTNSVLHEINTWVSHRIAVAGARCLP

[3] = molecular target: T3, mutant MGL (Homo sapiens, UniProt Q99685, L169S/L176S); test: MGL ThermoFluor Assay - Mutant; type: binding; details: 0.07 mg/ml mutant MGL, 100 μM ANS, pH 7.0
T3 construct: purified mutant MGL (mut-MGLL 11-313 L179S L186S)
T3 sequence (Q99685 1-303 L169S/L176S): T1 sequence (Q99685 1-303) with L169S, L176S
Description: The ThermoFluor (TF) assay is a 384-well plate-based binding assay that measures thermal stability of proteins^1,2. The experiments were carried out using instruments available from Johnson & Johnson Pharmaceutical Research & Development, LLC. TF dye used in all experiments was 1,8-ANS (Invitrogen: A-47). Final TF assay conditions used for MGL studies were 0.07 mg/ml of mutant MGL, 100 μM ANS, 200 mM NaCl, 0.001% Tween-20 in 50 mM PIPES (pH=7.0).
Screening compound plates contained 100% DMSO compound solutions at a single concentration. […] Columns 12 and 24 were used as DMSO reference and contained no compound. […] Following compound dispension, protein and dye solutions were added to achieve the final assay volume of 3 μL.
Bar-coded assay plates were robotically loaded onto a thermostatically controlled PCR-type thermal block and then heated from 40 to 90° C. degrees at a ramp-rate of 1° C./min for all experiments. Fluorescence was measured by continuous illumination with UV light (Hamamatsu LC6), supplied via fiber optics and filtered through a band-pass filter (380-400 nm; >60D cutoff). Fluorescence emission of the entire 384-well plate was detected by measuring light intensity using a CCD camera (Sensys, Roper Scientific) filtered to detect 500±25 nm, resulting in simultaneous and independent readings of all 384 wells. A single image with 20-sec exposure time was collected at each temperature, and the sum of the pixel intensity in a given area of the assay plate was recorded vs temperature and fit to standard equations to yield the Tm^1. • 1.
The Kd values for certain compounds of Formula (I) were determined from a fit of the equation to the concentration-response plot of the fractional activity as a function of […]. For some experiments, quantitative NMR spectroscopy (qNMR) was used to measure concentration of the initial 100% DMSO compound solutions and, using the same fitting method, qKd values were determined.

[4] = molecular target: T4, mutant MGL (mut-MGLL 11-313 L179S L186S) (Homo sapiens, UniProt Q99685, L169S/L176S); test: MGL Enzyme Activity Assay, purified mutant MGL, 4MU-B substrate; type: biochemical; details: mutant MGL 5 nM, 4MU-B 10 μM, 37° C.; read-out: MGL mutant inh IC50
T4 construct: purified mutant MGL (mut-MGLL 11-313 L179S L186S)
T4 sequence (Q99685 1-303 L169S/L176S): T1 sequence (Q99685 1-303) with L169S, L176S
Description: All rate-based assays were performed in black 384-well polypropylene PCR microplates (Abgene) in a total volume of 30 μL. Substrate 4-methylumbelliferyl butyrate (4MU-B; Sigma) and either purified mutant MGL (mut-MGLL 11-313 L179S L186S) or purified wild type MGL (wt-MGLL 6H-11-313) were diluted separately into 20 mM PIPES buffer (pH=7.0), containing 150 mM NaCl and 0.001% Tween 20. Compounds of Formula (I), including Formulas I(a), I(b), and I(c), were pre-dispensed (50 nL) into the assay plate using a Cartesian Hummingbird prior to adding 4MU-B (25 μL of 1.2× solution to a final concentration of 10 μM) followed by enzyme (5 μL of a 6× solution to a final concentration of 5 nM) to initiate the reaction. Final compound concentrations ranged from 17 to 0.0003 μM. The fluorescence change due to 4MU-B cleavage was monitored with excitation and emission wavelengths of 335 and 440 nm, respectively, and a bandwidth of 10 nm (Safire^2, Tecan) at 37° C. for 5 min.
as §1

For `Cc1c(C(=O)N2CC(N3CC(NC(=O)c4nccs4)C3)C2)sc2cc(-c3ccccc3)ccc12` [Cpd 66, N-{1′-[(3-Methyl-6-phenyl-1-benzothiophen-2-yl)carbonyl]-1,3′-biazetidin-3-yl}-1,3-thiazole-2-carboxamide], which IC50 [1] is on record?
The IC50 was < 0.005 µM.

What about the activity at 1 µM [2] of the same compound?
The activity at 1 µM was 399%.

Which IC50 [1] does the source give for `Cc1cn(-c2ccc(F)cc2)c2ccc(C(=O)N3CC(N4CC(NC(=O)c5nccs5)C4)C3)cc12` [Cpd 62, N-(1′-{[1-(4-Fluorophenyl)-3-methyl-1H-indol-5-yl]carbonyl}-1,3′-biazetidin-3-yl)-1,3-thiazole-2-carboxamide] here?
Its IC50 is 0.015 µM.

What about the activity at 1 µM [2] of the same compound?
Its activity at 1 µM is 334%.

With `Cc1cc(-c2ccc(C(F)(F)F)cc2)ccc1C(=O)N1CC(N2CC(NC(=O)c3nccs3)C2)C1` [Cpd 63, N-(1′-{[3-Methyl-4′-(trifluoromethyl)biphenyl-4-yl]carbonyl}-1,3′-biazetidin-3-yl)-1,3-thiazole-2-carboxamide] as the compound, how does the IC50 [1] read?
The IC50 was 0.029 µM.

And the activity at 1 µM [2]?
Its activity at 1 µM is 185%.

How did the IC50 [1] turn out when `Cc1c(C(=O)N2CC(N3CC(NC(=O)c4nccs4)C3)C2)sc2cc(Br)ccc12` [Cpd 65, N-{1′-[(6-Bromo-3-methyl-1-benzothiophen-2-yl)carbonyl]-1,3′-biazetidin-3-yl}-1,3-thiazole-2-carboxamide] was run?
The IC50 was < 0.005 µM.

And the activity at 1 µM [2]?
The activity at 1 µM was 324%.

With `CS(=O)(=O)c1cccc(-c2ccc(C(=O)N3CC(N4CC(N5Cc6ccccc6C5=O)C4)C3)cc2)c1` [Cpd 80, 2-(1′-{[3′-(Methylsulfonyl)biphenyl-4-yl]carbonyl}-1,3′-biazetidin-3-yl)-2,3-dihydro-1H-isoindol-1-one] as the compound, how does the Kd [3] read?
Its Kd is 0.192 µM.

What about the activity at 1 µM [2] of the same compound?
The activity at 1 µM was 166%.

What about the IC50 [4] of the same compound?
The IC50 was 0.019 µM.

Which Kd [3] does the source give for `O=C(c1ccc2nc(-c3ccccc3)oc2c1)N1CC(N2CC(N3Cc4ccccc4C3=O)C2)C1` [Cpd 84, 2-{1′-[(2-Phenyl-1,3-benzoxazol-6-yl)carbonyl]-1,3′-biazetidin-3-yl}-2,3-dihydro-1H-isoindol-1-one] here?
Its Kd is 0.06 µM.

What about the activity at 1 µM [2] of the same compound?
The activity at 1 µM was 152%.

What about the activity at 10 µM [2] of the same compound?
Its activity at 10 µM is 435%.

And the IC50 [4]?
Its IC50 is 0.031 µM.

Which results are given for `O=C(NC1CN(C2CN(C(=O)c3ccc(-c4ccc(C(F)(F)F)cc4)cc3F)C2)C1)c1nccs1` [Cpd 59, N-(1′-{[3-Fluoro-4′-(trifluoromethyl)biphenyl-4-yl]carbonyl}-1,3′-biazetidin-3-yl)-1,3-thiazole-2-carboxamide]?
IC50 [1]: 0.01 µM; activity at 1 µM [2]: 265%

What does the source list for `O=C(NC1CN(C2CN(C(=O)c3ccc4c(ccn4S(=O)(=O)c4ccccc4)c3)C2)C1)c1nccs1` [Cpd 3, N-(1′-{[1-(Phenylsulfonyl)-1H-indol-5-yl]carbonyl}-1,3′-biazetidin-3-yl)-1,3-thiazole-2-carboxamide]?
Kd [3]: 0.0333 µM; activity at 1 µM [2]: 271%; IC50 [4]: 0.006 µM

With `O=C(NC1CN(C2CN(C(=O)c3ccc4c(ccn4-c4ccc(F)c(F)c4)c3)C2)C1)c1cscn1` [Cpd 54, N-(1′-{[1-(3,4-Difluorophenyl)-1H-indol-5-yl]carbonyl}-1,3′-biazetidin-3-yl)-1,3-thiazole-4-carboxamide] as the compound, how does the IC50 [1] read?
Its IC50 is 0.005 µM.

What about the activity at 1 µM [2] of the same compound?
Its activity at 1 µM is 315%.

With `O=C(c1ccc2c(ccn2-c2ccc(C(F)(F)F)cc2)c1)N1CC(N2CC(N3Cc4scnc4C3=O)C2)C1` [Cpd 106, 5-[1′-({1-[4-(Trifluoromethyl)phenyl]-1H-indol-5-yl}carbonyl)-1,3′-biazetidin-3-yl]-5,6-dihydro-4H-pyrrolo[3,4-d][1,3]thiazol-4-one] as the compound, how does the IC50 [1] read?
Its IC50 is < 0.005 µM.

What about the activity at 1 µM [2] of the same compound?
Its activity at 1 µM is 414%.

Which IC50 [1] does the source give for `O=C(NC1CN(C2CN(C(=O)c3ccc4c(ccn4-c4ccc(F)cc4F)c3)C2)C1)c1nccs1` [Cpd 55, N-(1′-{[1-(2,4-Difluorophenyl)-1H-indol-5-yl]carbonyl}-1,3′-biazetidin-3-yl)-1,3-thiazole-2-carboxamide] here?
The IC50 was 0.005 µM.

And the activity at 1 µM [2]?
Its activity at 1 µM is 353%.

Which results are given for `O=C(c1cc2ccc(Br)cc2s1)N1CC(N2CC(N3Cc4ccccc4C3=O)C2)C1` [Cpd 87, 2-{1′-[(6-Bromo-1-benzothiophen-2-yl)carbonyl]-1,3′-biazetidin-3-yl}-2,3-dihydro-1H-isoindol-1-one]?
Kd [3]: 0.04 µM; activity at 10 µM [2]: 250%; IC50 [4]: 0.05 µM

For `O=C(NC1CN(C2CN(C(=O)c3ccc4c(ccn4-c4ccc(F)cc4F)c3)C2)C1)c1cscn1` [Cpd 60, N-(1′-{[1-(2,4-Difluorophenyl)-1H-indol-5-yl]carbonyl}-1,3′-biazetidin-3-yl)-1,3-thiazole-4-carboxamide], which IC50 [1] is on record?
The IC50 was 0.011 µM.

And the activity at 1 µM [2]?
Its activity at 1 µM is 273%.

With `O=C(NC1CN(C2CN(C(=O)c3ccc4c(ccn4-c4ccc(F)c(F)c4)c3)C2)C1)c1nccs1` [Cpd 57, N-(1′-{[1-(3,4-Difluorophenyl)-1H-indol-5-yl]carbonyl}-1,3′-biazetidin-3-yl)-1,3-thiazole-2-carboxamide] as the compound, how does the IC50 [1] read?
The IC50 was 0.007 µM.

What about the activity at 1 µM [2] of the same compound?
Its activity at 1 µM is 424%.

For `O=C(NC1CN(C2CN(C(=O)c3ccc4c(ccn4-c4ccc(F)cc4)c3)C2)C1)c1cscn1` [Cpd 11, N-(1′-{[1-(4-Fluorophenyl)-1H-indol-5-yl]carbonyl}-1,3′-biazetidin-3-yl)-1,3-thiazole-4-carboxamide], which Kd [3] is on record?
The Kd was 0.044 µM.

What about the activity at 10 µM [2] of the same compound?
Its activity at 10 µM is 220%.

And the IC50 [4]?
Its IC50 is 0.015 µM.

How did the Kd [3] turn out when `O=C(c1ccc2c(ccn2S(=O)(=O)c2ccccc2)c1)N1CC(N2CC(N3Cc4ccccc4C3=O)C2)C1` [Cpd 71, 2-(1′-{[1-(Phenylsulfonyl)-1H-indol-5-yl]carbonyl}-1,3′-biazetidin-3-yl)-2,3-dihydro-1H-isoindol-1-one] was run?
The Kd was 0.05 µM.

What about the activity at 10 µM [2] of the same compound?
Its activity at 10 µM is 400%.

What about the IC50 [4] of the same compound?
The IC50 was 0.008 µM.

How did the Kd [3] turn out when `O=C(c1sc2cc(F)ccc2c1Cl)N1CC(N2CC(N3Cc4ccccc4C3=O)C2)C1` [Cpd 100, 2-{1′-[(3-Chloro-6-fluoro-1-benzothiophen-2-yl)carbonyl]-1,3′-biazetidin-3-yl}-2,3-dihydro-1H-isoindol-1-one] was run?
Its Kd is 0.047 µM.

What about the activity at 1 µM [2] of the same compound?
Its activity at 1 µM is 208%.

What about the IC50 [4] of the same compound?
Its IC50 is < 0.005 µM.
